# Experimental data from ChEMBL document CHEMBL1201862, “PubChem BioAssay data set” (2004).
# Active and inactive are the calls of the source.
# Assays:
# [1] = P. falciparum Dd2 growth inhibitors, dose response, SYBR Green, dry powder samples, set 9 (AID 1159568); format: functional, cell-based
# [2] = P. falciparum 3D7-ScDHODH growth inhibitors, dose response, SYBR Green, dry powder samples (AID 1159570); format: functional, cell-based;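 also: parasite growth measured after 72 hours of compound exposure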
# [3] = HepG2 cell cytotoxicity, dose response, cytotoxicity control, plate reader, dry powder samples (AID 1159569); format: functional, cell-based;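 also: inhibitor potency with signal falling toward the positive control level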
# [4] = P. falciparum Dd2 growth inhibitors, dose response, SYBR Green, cherry-picked samples (AID 1159567); format: functional, cell-based
# [5] = P. falciparum Dd2 growth inhibitors, dose response, SYBR Green, dry powder samples (AID 1159566); format: functional, cell-based;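 also: potency for growth inhibition with lower SYBR green DNA signal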
# [6] = P. falciparum ATP4 D1247Y mutant growth inhibitors, dose response, NITD609-resistant line, SYBR Green, dry powder (AID 1159571); format: functional, cell-based;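 also: parasites synchronized at ring stage by sorbitol before testing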
# [7] = biological target: FAD-linked sulfhydryl oxidase ALR (Homo sapiens, UniProt P55789); experiment: inhibitors of human ALR sulfhydryl oxidase, dose response, biochemical, H2O2 detection, luminescence, cherry-pick (AID 493248)
# [8] = HepG2 cell cytotoxicity, dose response, cytotoxicity control, ATP luminescence, cherry-pick, activator set 2 (AID 1053143); format: functional, cell-based
# Beta-lactamase [9] = biological target: Beta-lactamase (Salmonella choleraesuis (strain SC-B67), UniProt Q5J463); experiment: Epi-absorbance-based counterscreen for selective VIM-2 inhibitors: dose response biochemical high throughput screening assay to identify inhibitors of TEM-1 serine-beta-lactamase.
# Beta-lactamase [10] = biological target: T1, Beta-lactamase (Pseudomonas aeruginosa, UniProt Q79MP6); experiment: IMP-1 metallo-beta-lactamase inhibitors, dose response, selectivity assay for VIM-2 inhibitor project, biochemical, epi-absorbance (AID 1920)
# Beta-lactamase [11] = biological target: T1, Beta-lactamase; experiment: […] counterscreen for selective VIM-2 inhibitors: dose response biochemical high throughput screening assay to identify inhibitors of IMP-1 metallo-beta-lactamase.
# [12] = microbe, parasite or virus in culture; format: functional; conditions: Mycobacterium tuberculosis
# [13] = biological target: T2, Mannose-6-phosphate isomerase (Homo sapiens, UniProt P34949); experiment: human PMI inhibitors, high substrate, primary screen, biochemical, fluorescence intensity, high mannose 6-phosphate (AID 1220)
# T2 sequence (P34949 whole entry): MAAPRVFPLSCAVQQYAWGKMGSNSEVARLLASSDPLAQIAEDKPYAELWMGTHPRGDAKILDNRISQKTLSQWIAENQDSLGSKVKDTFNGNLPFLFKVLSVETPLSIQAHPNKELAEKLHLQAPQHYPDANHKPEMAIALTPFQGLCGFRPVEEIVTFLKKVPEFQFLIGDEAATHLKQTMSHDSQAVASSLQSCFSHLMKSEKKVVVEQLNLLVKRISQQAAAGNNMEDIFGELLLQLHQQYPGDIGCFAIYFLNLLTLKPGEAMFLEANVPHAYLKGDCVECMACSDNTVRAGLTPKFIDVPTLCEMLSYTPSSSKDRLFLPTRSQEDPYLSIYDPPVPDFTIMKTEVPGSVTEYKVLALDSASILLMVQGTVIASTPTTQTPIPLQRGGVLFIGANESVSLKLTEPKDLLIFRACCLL
# cells = format: functional
# Vero = experiment: Vero cell toxicity, dose response, cytotoxicity control, plate reader, cherry-pick samples (AID 687020); format: functional, cell-based; conditions: Chlorocebus sabaeus
# Kallikrein-7 = Kallikrein-7 (Homo sapiens, UniProt P49862); experiment: Fluorescence Intensity-based biochemical primary high throughput dose response assay to identify activators of kallikrein-7 (K7) zymogen.
# [14] = inhibitors of PGC1a acetylation in cells, dose response, cell-based, cherry-picked samples (AID 720514); format: functional;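 also: potency may reflect raised or lowered acetylation signal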
# [15] = biological target: T3, Corticotropin-releasing factor receptor 2/Corticotropin-releasing factor-binding protein (Homo sapiens, UniProt P24387+Q13324); experiment: activators of CRF receptor 2 with binding protein – uHTS hits, confirmation (AID 602473); format: functional; conditions: read-out: EC50_Mean
# T3 sequence (Q13324 whole entry): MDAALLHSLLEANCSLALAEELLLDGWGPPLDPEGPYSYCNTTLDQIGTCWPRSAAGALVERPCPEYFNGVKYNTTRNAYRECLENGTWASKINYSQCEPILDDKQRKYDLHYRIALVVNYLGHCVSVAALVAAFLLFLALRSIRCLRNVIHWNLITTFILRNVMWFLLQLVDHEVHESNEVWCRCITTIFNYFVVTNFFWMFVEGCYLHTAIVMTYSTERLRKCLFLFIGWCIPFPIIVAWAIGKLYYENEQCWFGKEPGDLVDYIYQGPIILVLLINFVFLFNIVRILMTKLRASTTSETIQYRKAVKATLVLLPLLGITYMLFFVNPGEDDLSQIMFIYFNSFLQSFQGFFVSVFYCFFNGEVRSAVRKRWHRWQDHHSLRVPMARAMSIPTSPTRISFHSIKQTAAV
# T3 sequence (P24387 whole entry): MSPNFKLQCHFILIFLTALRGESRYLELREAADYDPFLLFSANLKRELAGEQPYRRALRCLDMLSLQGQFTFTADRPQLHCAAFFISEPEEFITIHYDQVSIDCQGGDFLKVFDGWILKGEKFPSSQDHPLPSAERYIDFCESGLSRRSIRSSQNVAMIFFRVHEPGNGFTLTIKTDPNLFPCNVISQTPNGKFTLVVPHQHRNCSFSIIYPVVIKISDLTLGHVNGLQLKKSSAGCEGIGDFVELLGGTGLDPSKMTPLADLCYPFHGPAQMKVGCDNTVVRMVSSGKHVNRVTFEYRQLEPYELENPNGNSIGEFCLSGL
# [16] = HEK293T cell cytotoxicity, dose response, cytotoxicity control for HIV Vif inhibitor project, cherry-picks (AID 652208); format: functional, cell-based
# [17] = biological target: T4, Carboxy-terminal domain RNA polymerase II polypeptide A small phosphatase 1 (Homo sapiens, UniProt Q9GZU7); experiment: inhibitors of CTDSP1, concentration-response testing, biochemical assay, absorbance-based, actives from ultra-high-throughput screening (AID 540297); format: functional
# T4 sequence (Q9GZU7 whole entry): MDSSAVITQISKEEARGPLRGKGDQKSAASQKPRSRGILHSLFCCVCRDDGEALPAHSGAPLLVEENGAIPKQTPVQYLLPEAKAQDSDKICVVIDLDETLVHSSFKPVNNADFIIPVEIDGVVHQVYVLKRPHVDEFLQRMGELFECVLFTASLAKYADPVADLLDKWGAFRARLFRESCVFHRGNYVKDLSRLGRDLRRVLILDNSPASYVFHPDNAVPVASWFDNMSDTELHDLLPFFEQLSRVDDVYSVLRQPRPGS
# [18] = biological target: T5, Small ubiquitin-related modifier 1 (Homo sapiens, UniProt P63165); experiment: inhibitors of SUMO1 peptide binding, dose response, biochemical, fluorescence polarization, uHTS hits (AID 624382); format: functional; conditions: read-out: IC50_Mean
# [19] = biological target: T5, Small ubiquitin-related modifier 1; experiment: inhibitors of SUMO1 partner interactions, dose response, biochemical, FRET (AID 624383); format: functional; conditions: read-out: IC50_Mean
# Caspase-6 = biological target: T6, Caspase-6 (Homo sapiens, UniProt P55212); experiment: human caspase-6 inhibitors, dose response, biochemical, VEID-R110 fluorescence, cherry-pick (AID 720632)
# T6 sequence (P55212 whole entry): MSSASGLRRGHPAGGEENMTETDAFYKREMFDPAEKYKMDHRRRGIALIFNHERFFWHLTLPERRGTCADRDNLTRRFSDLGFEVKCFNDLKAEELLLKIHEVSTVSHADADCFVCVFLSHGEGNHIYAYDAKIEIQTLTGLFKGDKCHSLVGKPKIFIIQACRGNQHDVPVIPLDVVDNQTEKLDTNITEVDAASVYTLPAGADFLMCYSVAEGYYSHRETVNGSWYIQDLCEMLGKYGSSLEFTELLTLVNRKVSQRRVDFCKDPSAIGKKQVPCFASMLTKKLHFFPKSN
# [20] = HEK293T cytotoxicity, dose response, cytotoxicity control for miR-122 modulator project, cell-based, inhibitor set, cherry-pick, set 2 (AID 720697); format: functional
# T1 sequence (Q79MP6 whole entry): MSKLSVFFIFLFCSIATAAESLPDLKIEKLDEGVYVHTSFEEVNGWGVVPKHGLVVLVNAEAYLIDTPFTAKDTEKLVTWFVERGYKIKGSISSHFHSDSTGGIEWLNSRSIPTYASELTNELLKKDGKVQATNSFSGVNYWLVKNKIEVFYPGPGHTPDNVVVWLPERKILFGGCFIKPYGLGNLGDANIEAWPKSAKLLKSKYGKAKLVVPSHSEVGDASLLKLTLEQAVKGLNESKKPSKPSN
# T5 sequence (P63165 whole entry): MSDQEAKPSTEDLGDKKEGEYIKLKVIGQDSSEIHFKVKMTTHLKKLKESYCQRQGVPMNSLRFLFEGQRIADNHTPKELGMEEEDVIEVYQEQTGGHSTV
# Chain of Beta-lactamase (Salmonella choleraesuis (strain SC-B67), UniProt Q5J463) (Q5J463 whole entry): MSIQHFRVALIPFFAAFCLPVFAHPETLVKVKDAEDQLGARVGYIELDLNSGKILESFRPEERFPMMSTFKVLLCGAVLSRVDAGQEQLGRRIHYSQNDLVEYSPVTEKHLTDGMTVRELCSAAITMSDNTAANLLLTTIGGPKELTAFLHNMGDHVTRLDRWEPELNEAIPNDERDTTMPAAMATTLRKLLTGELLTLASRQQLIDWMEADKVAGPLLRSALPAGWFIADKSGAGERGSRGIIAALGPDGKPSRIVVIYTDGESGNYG
# Chain of FAD-linked sulfhydryl oxidase ALR (P55789 whole entry): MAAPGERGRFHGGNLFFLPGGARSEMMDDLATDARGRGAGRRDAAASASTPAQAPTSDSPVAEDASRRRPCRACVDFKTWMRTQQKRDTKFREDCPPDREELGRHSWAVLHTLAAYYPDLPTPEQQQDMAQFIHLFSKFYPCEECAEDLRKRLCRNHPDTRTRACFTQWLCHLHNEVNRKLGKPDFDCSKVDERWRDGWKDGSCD
# Chain of Kallikrein-7 (P49862 whole entry): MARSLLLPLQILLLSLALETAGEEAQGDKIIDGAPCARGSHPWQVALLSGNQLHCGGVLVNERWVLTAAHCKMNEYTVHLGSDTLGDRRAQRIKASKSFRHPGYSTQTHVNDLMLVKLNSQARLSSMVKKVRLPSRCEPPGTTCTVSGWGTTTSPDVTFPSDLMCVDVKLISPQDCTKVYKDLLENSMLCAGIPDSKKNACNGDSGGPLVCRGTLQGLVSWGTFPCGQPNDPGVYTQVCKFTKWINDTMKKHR
compound,measurement,setting,value
O=C(Nc1ccccc1F)N1CCCCN2[C@H](CO)[C@H](c3ccc(/C=C/c4ccccc4)cc3)[C@@H]2C1,AC50,[1],12 µM (active)
C[C@H](CO)N1C[C@H](C)[C@H](CN(C)C(=O)C2CCCCC2)Oc2ncc(C#Cc3cccc(F)c3)cc2C1=O,AC50,[2],0.848 µM (active)
same,AC50,[3],49.1 µM (active)
same,AC50,[1],0.269 µM (active)
same,AC50,[4],1.39 µM (active)
same,AC50,[5],0.408 µM (active)
same,AC50,[6],0.725 µM (active)
Cc1ccc(Nc2nc(-c3ccc(O)cc3O)cs2)nc1,AC50,[7],0.288 µM (active)
same,AC50,[8],26 µM (active)
CCn1c(-c2nn(-c3ccccc3)ccc2=O)n[nH]c1=S,IC50,Beta-lactamase [9],> 59.6 µM (inactive)
same,IC50,Beta-lactamase [10],> 59.6 µM (inactive)
same,IC50,Beta-lactamase [11],> 59.6 µM (inactive)
Cc1cc(=O)n2cccc(O)c2n1,CC50,[12],> 40 µM (active)
same,IC50,[13],22.9 µM (active)
same,IC50,cells,9.19 µM (active)
Cc1ccc(CNC(=O)C2CCC(=O)N(CCc3ccccn3)C2)s1 (centres undefined),AC50,Vero,35.6 µM (active)
S=c1[nH]nc(Cn2c(-c3ccccn3)nc3ccccc32)n1-c1ccc2c(c1)OCCO2,IC50,Beta-lactamase [9],> 59.6 µM (inactive)
same,IC50,Beta-lactamase [10],> 59.6 µM (inactive)
same,IC50,Beta-lactamase [11],> 59.6 µM (inactive)
Cc1nn(-c2ccccc2)c2c1cc1c(=O)n(C)c(=O)nc-1n2-c1ccccc1F,EC50,Kallikrein-7,52.9 µM (inactive)
O=C1C=CCCN1C(=O)/C=C/c1cccc(Br)c1,AC50,[14],0.949 µM (active)
COCCNC(=O)c1cc2cc3ccc(OC)cc3nc2o1,AC50,Vero,27.7 µM (active)
Cc1ccc(CNC(=O)c2cccc3c2C(=O)c2ccc(N4CCC(C)CC4)cc2S3(=O)=O)cc1,EC50,[15],5.51 µM (active)
same,AC50,[16],39.3 µM (active)
CC1=CCC(C(=O)O)C(C(=O)NC2CCCCC2)C1 (centres undefined),IC50,[17],33.8 µM (active)
same,IC50,[18],> 66.6 µM (inactive)
same,IC50,[19],20.4 µM (inactive)
same,AC50,Caspase-6,10.2 µM (active)
C[C@H](CO)N1C[C@H](C)[C@H](CN(C)C(=O)C2CCC2)Oc2cc(-c3ccc(C(=O)N(C)C)cc3)ccc2S1(=O)=O,AC50,[20],9.74 µM (active)
